Measurements: ChEMBL document CHEMBL2016457, “Discovery of potent and orally bioavailable 17β-hydroxysteroid dehydrogenase type 3 inhibitors” (Bioorg Med Chem, 2012)
Calls of active or inactive are those of the source. No rule for the calls is given here.

Key:
[1] = target: T1, Glucocorticoid receptor (Homo sapiens) (UniProt P04150); assay: Antagonist activity at human GR receptor expressed in human HeLa cells assessed as inhibition of DHT-induced response after 40 hrs by luciferase/beta-galactosidase-based reporter gene assay; assay type: functional, cell-based
T1 sequence (whole entry): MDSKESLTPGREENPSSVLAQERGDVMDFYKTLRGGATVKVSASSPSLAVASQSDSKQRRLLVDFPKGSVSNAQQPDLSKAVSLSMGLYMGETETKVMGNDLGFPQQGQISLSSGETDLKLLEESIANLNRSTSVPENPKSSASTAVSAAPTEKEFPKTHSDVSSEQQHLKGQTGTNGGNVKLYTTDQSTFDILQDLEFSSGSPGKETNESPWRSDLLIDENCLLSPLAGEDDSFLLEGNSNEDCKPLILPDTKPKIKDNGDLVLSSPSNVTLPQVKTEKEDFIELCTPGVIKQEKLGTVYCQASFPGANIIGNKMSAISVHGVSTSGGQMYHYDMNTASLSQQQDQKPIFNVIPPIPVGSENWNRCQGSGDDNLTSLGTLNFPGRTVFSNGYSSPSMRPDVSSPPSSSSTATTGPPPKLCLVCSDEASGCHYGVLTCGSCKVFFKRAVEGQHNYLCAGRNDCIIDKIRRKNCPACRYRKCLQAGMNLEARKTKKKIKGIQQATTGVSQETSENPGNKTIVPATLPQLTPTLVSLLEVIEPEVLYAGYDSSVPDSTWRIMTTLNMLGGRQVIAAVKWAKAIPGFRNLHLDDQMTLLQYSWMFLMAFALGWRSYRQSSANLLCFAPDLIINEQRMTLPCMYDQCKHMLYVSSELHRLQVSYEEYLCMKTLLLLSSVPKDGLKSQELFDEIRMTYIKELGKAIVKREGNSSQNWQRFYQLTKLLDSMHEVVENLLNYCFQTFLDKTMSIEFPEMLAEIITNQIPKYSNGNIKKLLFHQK

[2] = target: T2, Androgen receptor (Homo sapiens) (UniProt P10275); assay: Agonist activity at human androgen receptor expressed in human HeLa cells assessed as DHT-induced response after 40 hrs by luciferase/beta-galactosidase-based reporter gene assay; assay type: functional, cell-based
T2 sequence (whole entry): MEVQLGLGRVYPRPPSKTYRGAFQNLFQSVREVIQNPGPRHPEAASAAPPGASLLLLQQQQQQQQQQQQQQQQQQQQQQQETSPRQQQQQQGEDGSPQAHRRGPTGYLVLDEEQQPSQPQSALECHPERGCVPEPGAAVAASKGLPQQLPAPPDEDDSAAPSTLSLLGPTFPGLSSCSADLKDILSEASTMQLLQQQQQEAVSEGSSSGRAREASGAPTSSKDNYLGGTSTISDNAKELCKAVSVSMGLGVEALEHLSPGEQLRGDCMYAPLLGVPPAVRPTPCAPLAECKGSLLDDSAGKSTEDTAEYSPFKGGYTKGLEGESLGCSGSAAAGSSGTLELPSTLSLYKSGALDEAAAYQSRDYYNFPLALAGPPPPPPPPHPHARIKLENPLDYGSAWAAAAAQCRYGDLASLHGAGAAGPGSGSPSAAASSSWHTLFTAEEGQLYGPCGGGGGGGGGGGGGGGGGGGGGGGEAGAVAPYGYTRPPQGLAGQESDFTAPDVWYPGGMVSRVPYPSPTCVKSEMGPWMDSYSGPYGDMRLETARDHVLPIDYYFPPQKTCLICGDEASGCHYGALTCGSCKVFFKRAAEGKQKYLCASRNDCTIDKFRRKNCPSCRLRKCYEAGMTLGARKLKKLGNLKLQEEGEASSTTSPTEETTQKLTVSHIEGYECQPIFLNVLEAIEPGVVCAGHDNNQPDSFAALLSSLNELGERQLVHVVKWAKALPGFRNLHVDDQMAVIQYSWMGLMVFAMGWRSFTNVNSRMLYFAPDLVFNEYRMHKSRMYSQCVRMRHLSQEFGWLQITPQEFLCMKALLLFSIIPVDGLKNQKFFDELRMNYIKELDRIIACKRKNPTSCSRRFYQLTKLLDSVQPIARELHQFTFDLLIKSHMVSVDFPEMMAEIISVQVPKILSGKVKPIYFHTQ

[3] = target: T3, 17-beta-hydroxysteroid dehydrogenase type 2 (Homo sapiens) (UniProt P37059); assay: Inhibition of human recombinant 17-beta-HSD2 expressed in human HeLa cells using estradiol as substrate preincubated for 30 mins prior substrate addition measured after 120 mins by spectrophotometry; assay type: cell-based
T3 sequence (whole entry): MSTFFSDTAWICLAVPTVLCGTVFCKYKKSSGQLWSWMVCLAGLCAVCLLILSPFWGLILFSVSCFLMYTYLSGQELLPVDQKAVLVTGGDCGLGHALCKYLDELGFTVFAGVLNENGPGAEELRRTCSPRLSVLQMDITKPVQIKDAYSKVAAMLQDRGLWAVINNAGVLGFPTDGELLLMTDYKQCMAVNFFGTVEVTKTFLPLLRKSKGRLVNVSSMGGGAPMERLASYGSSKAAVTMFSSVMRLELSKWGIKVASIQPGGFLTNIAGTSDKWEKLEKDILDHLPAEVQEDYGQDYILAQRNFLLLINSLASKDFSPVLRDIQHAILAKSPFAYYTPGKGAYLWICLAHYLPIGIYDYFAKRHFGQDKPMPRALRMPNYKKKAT

[4] = target: T1, Glucocorticoid receptor (Homo sapiens); assay: Agonist activity at human Glucocorticoid receptor expressed in human HeLa cells assessed as DHT-induced response after 40 hrs by luciferase/beta-galactosidase-based reporter gene assay; assay type: functional, cell-based
[5] = target: T2, Androgen receptor (Homo sapiens); assay: Antagonist activity at human androgen receptor expressed in human HeLa cells assessed as inhibition of DHT-induced response after 40 hrs by luciferase/beta-galactosidase-based reporter gene assay; assay type: functional, cell-based
[6] = target: T4, Estrogen receptor (Homo sapiens) (UniProt P03372); assay: Agonist activity at human Estrogen receptor ERalpha expressed in human HeLa cells assessed as DHT-induced response after 40 hrs by luciferase/beta-galactosidase-based reporter gene assay; assay type: functional, cell-based
T4 sequence (whole entry): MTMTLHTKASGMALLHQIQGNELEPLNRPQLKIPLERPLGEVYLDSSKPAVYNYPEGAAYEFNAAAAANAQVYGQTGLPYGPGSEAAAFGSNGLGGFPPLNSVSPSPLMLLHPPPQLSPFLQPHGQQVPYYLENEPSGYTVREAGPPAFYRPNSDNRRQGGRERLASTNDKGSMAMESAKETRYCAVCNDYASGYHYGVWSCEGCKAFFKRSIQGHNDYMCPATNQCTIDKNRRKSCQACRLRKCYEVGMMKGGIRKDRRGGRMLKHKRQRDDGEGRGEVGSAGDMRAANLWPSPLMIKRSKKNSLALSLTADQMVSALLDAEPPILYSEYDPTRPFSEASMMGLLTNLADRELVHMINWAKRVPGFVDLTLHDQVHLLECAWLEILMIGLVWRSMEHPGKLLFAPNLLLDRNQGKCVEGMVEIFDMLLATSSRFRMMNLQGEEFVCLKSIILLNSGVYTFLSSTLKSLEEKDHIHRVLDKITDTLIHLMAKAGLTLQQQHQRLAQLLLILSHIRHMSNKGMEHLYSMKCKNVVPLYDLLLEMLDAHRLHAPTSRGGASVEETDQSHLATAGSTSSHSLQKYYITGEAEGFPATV

| Activity [1] | Activity [2] | inhibition [3] | Activity [4] | Activity [5] | Activity [6] | SMILES |
| --- | --- | --- | --- | --- | --- | --- |
| inactive | inactive | inactive | inactive | inactive | inactive | COc1ccc(N2C(=O)/C(=C/c3cc(Cl)c(OP(=O)(O)O)c(Cl)c3)OC2=S)cc1 |
| inactive | inactive | inactive | inactive | inactive | inactive | COc1ccc(N2C(=O)/C(=C/c3cc(Cl)c(O)c(Cl)c3)OC2=S)cc1 |
